Data on 24 molecules can be found in ChEMBL document CHEMBL1909046, “DrugMatrix in vitro pharmacology data”.

Test [1] has as its target T1, 5-hydroxytryptamine receptor 2C (Homo sapiens, UniProt P28335).
T1 sequence (P28335 whole entry): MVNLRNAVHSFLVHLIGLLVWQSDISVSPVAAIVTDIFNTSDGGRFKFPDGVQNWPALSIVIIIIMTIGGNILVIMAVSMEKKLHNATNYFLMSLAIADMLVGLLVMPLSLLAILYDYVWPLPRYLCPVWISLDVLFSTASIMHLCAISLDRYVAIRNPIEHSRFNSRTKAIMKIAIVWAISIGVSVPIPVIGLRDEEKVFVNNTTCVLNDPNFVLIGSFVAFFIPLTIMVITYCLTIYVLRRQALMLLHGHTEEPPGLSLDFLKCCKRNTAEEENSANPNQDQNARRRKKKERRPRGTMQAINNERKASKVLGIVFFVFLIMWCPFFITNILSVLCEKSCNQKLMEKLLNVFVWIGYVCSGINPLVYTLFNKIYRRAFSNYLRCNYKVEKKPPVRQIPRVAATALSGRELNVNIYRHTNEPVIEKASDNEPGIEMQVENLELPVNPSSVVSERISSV
The test can be described thus: DRUGMATRIX: Serotonin (5-Hydroxytryptamine) 5-HT2C radioligand binding (ligand: [3H] Mesulergine). The test is classed as cell membranes, CHO-K1, Membrane. The conditions noted are these: Not Active = under 50% inhibition at 10 µM; for Ki: read-out: Ki.

The target of test [2] is T2, Cholecystokinin receptor type A (Homo sapiens, UniProt P32238). Note: in other assays of this panel Not Active means under 50% inhibition at 10 µM.
T2 sequence (P32238 whole entry): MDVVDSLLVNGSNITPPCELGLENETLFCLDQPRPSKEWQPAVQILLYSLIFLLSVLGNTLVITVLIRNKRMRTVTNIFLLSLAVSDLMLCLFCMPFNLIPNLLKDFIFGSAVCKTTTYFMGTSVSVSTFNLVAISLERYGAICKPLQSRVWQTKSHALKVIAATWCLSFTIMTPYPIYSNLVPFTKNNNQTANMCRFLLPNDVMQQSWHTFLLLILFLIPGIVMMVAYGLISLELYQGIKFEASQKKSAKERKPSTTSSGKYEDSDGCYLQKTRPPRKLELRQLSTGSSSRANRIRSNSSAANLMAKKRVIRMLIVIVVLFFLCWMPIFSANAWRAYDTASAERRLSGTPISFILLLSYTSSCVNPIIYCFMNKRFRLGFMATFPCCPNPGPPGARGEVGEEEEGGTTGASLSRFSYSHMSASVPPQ
The test is classed as cell membranes, Membrane. Conditions: 1321-n1.

Test [3] addresses Delta-type opioid receptor (Homo sapiens, UniProt P41143). The test is classed as cell membranes, HEK293, Membrane.
The next test concerns the target Estrogen receptor beta (Homo sapiens, UniProt Q92731). The conditions noted are these: sf9. Note: in other assays of this panel Not Active means under 50% inhibition at 10 µM.
The next test has as its target T3, Leukotriene C4 synthase (Cavia porcellus, UniProt A6XA80).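 Note: enzyme inhibition assay of leukotriene C4 synthase, using LTA4 as the substrate; in other assays of this panel Not Active means under 50% inhibition at 10 µM.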
T3 sequence (A6XA80 whole entry): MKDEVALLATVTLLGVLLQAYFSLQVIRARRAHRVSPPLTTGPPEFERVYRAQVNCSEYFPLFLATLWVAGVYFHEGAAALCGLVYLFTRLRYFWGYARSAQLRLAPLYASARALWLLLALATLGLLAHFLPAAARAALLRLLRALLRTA
The test is classed as tissue-based, Lung.

A further test concerns the target T4, D(4) dopamine receptor (Homo sapiens, UniProt P21917).
T4 sequence (P21917 whole entry): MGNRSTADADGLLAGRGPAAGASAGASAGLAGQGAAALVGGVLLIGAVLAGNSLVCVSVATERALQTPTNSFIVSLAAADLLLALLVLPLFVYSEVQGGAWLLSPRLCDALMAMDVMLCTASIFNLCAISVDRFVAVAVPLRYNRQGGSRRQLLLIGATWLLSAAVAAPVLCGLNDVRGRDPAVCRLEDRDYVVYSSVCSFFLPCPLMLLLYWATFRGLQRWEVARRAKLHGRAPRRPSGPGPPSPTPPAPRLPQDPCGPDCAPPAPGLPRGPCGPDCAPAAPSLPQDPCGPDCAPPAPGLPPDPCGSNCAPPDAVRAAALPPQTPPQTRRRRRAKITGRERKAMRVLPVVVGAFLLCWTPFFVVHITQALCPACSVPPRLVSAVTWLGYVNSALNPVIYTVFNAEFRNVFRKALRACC
Kind of test: DRUGMATRIX: Dopamine D4.2 radioligand binding (ligand: [3H] Spiperone). In kind it is cell membranes, CHO-K1, Membrane. Conditions: Not Active = under 50% inhibition at 10 µM.

Chain of Delta-type opioid receptor (P41143 whole entry): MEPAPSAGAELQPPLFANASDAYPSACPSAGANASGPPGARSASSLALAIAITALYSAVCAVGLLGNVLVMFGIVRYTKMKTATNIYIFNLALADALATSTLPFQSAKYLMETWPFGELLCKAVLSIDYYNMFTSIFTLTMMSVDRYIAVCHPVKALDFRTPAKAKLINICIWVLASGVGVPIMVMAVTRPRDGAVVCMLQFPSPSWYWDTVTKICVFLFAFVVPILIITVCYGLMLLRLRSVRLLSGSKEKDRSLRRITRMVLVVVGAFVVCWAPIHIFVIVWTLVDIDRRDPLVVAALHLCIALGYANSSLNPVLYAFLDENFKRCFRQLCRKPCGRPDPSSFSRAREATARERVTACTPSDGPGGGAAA
Chain of Estrogen receptor beta (Q92731 whole entry): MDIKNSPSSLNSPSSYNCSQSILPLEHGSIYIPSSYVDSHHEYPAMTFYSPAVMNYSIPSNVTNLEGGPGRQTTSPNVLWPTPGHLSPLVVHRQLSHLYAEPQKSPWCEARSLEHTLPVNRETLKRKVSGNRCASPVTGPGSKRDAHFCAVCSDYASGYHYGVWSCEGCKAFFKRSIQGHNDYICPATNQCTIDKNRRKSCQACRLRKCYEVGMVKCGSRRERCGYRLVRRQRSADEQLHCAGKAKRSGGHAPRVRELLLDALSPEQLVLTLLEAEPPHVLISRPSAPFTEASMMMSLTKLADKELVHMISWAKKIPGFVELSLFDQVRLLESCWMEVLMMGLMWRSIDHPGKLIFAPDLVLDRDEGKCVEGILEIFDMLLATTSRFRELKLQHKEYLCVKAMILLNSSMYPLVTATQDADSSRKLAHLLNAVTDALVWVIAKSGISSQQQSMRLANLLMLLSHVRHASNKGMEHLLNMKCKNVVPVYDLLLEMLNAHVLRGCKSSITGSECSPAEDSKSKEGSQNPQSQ

For the molecule `CCCCC(=O)N(Cc1ccc(-c2ccccc2-c2nnn[nH]2)cc1)[C@H](C(=O)O)C(C)C`, the IC50 result (in test [1] (cho-k1); in test [2]; in test [3] (hek293); at Estrogen receptor beta; at Leukotriene C4 synthase; on D(4) dopamine receptor (cho-k1)) was “Not Active” in each case.

Turning to `O=C(O)COc1ccc(C(=O)c2cccs2)c(Cl)c1Cl`, the half-maximal inhibitory concentration (IC50) entry (in test [1] (cho-k1); in test [2]; in test [3] (hek293); at Estrogen receptor beta; at Leukotriene C4 synthase; at D(4) dopamine receptor (cho-k1)) was “Not Active” throughout.

For `CN1[C@@H]2CC[C@H]1C[C@@H](OC(c1ccccc1)c1ccccc1)C2` [BENZTROPINE], the IC50 was 0.061 µM in test [1] (read-out: IC50); “Not Active” in test [2]; “Not Active” in test [3] (hek293); “Not Active” at Estrogen receptor beta; “Not Active” against Leukotriene C4 synthase; “Not Active” on D(4) dopamine receptor (cho-k1). In addition, in test [1], the Ki was 0.032 µM.

With `C[C@@](Cc1ccc(O)c(O)c1)(NN)C(=O)O.O` [CARBIDOPA], the 50% inhibitory concentration (IC50) entry (in test [1] (cho-k1); in test [2]; in test [3] (hek293); on Leukotriene C4 synthase; on D(4) dopamine receptor (cho-k1)) was “Not Active” each time.

In the case of `CN1CCN(C2=Nc3cc(Cl)ccc3Nc3ccccc32)CC1` [CLOZAPINE], the concentration for half-maximal inhibition (IC50) result (in test [2]; in test [3] (hek293); at Estrogen receptor beta; against Leukotriene C4 synthase) was “Not Active” in each case.

Turning to `CC(C)NC[C@@H](O)COc1cccc2ccccc12` [DEXPROPRANOLOL], the 50% inhibitory concentration (IC50) result (in test [1] (cho-k1); in test [2]; in test [3] (hek293); at Estrogen receptor beta; on Leukotriene C4 synthase; on D(4) dopamine receptor (cho-k1)) was “Not Active” throughout.

In the case of `CC(C)NC[C@H](O)COc1cccc2ccccc12` [LEVOPROPRANOLOL], the IC50 entry (in test [2]; in test [3] (hek293); at Estrogen receptor beta; on Leukotriene C4 synthase; on D(4) dopamine receptor (cho-k1)) was “Not Active” throughout.

For `O=C(O)CCCCC1CCSS1` (stereo not drawn) [LIPOIC ACID, ALPHA], the concentration for half-maximal inhibition (IC50) entry (in test [1] (cho-k1); in test [2]; in test [3] (hek293); at Estrogen receptor beta; on Leukotriene C4 synthase; on D(4) dopamine receptor (cho-k1)) was “Not Active” each time.

For `CN(C)C(=O)C(CCN1CCC(O)(c2ccc(Cl)cc2)CC1)(c1ccccc1)c1ccccc1` [LOPERAMIDE], the IC50 result (in test [1] (cho-k1); in test [2]; on Estrogen receptor beta; against Leukotriene C4 synthase; on D(4) dopamine receptor (cho-k1)) was “Not Active” throughout.

Consider `Clc1ccc(COC(Cn2ccnc2)c2ccc(Cl)cc2Cl)c(Cl)c1` (stereo not drawn) [MICONAZOLE], for which the concentration for half-maximal inhibition (IC50) in test [1] (read-out: IC50) is 5.31 µM; in test [2], “Not Active”; in test [3] (read-out: IC50) it was 3.39 µM; against Estrogen receptor beta, “Not Active”; against Leukotriene C4 synthase it was “Not Active”; on D(4) dopamine receptor (read-out: IC50) it was 15.3 µM. In addition, the Ki turned out to be 2.78 µM in test [1], 1.19 µM in test [3] (read-out: Ki) and 5.35 µM at D(4) dopamine receptor (read-out: Ki).

Turning to `Oc1ccc2c3c1O[C@H]1[C@@H](O)CC[C@@]4(O)[C@@H](C2)N(CC2CCC2)CC[C@]314` [NALBUPHINE], the 50% inhibitory concentration (IC50) result (in test [1] (cho-k1); in test [2]; at Estrogen receptor beta; against Leukotriene C4 synthase; at D(4) dopamine receptor (cho-k1)) was “Not Active” in each case.

Consider `C[C@]12C=CC(=O)C=C1CC[C@@H]1[C@@H]2C(=O)C[C@@]2(C)[C@H]1CC[C@]2(O)C(=O)CO` [PREDNISONE], for which the IC50 result (in test [1] (cho-k1); in test [2]; in test [3] (hek293); against Estrogen receptor beta; against Leukotriene C4 synthase; on D(4) dopamine receptor (cho-k1)) was “Not Active” in each case.

For the molecule `OCCOCCN1CCN(C2=Nc3ccccc3Sc3ccccc32)CC1` [QUETIAPINE], the half-maximal inhibitory concentration (IC50) entry (in test [2]; in test [3] (hek293); against Estrogen receptor beta; on Leukotriene C4 synthase; on D(4) dopamine receptor (cho-k1)) was “Not Active” throughout.

Consider `COC(=O)[C@H]1[C@H]2C[C@@H]3c4[nH]c5cc(OC)ccc5c4CCN3C[C@H]2C[C@@H](OC(=O)c2cc(OC)c(OC)c(OC)c2)[C@@H]1OC` [RESERPINE], for which the IC50 entry (in test [1] (cho-k1); in test [2]; in test [3] (hek293); against Leukotriene C4 synthase; on D(4) dopamine receptor (cho-k1)) was “Not Active” each time.

Turning to `O=C(O)c1ccccc1O` [SALICYLIC ACID], the IC50 result (in test [1] (cho-k1); in test [2]; in test [3] (hek293); on Leukotriene C4 synthase; at D(4) dopamine receptor (cho-k1)) was “Not Active” each time.

Turning to `C[S+]([O-])c1ccc(-c2nc(-c3ccncc3)c(-c3ccc(F)cc3)[nH]2)cc1` (stereo not drawn) [SB-203580], the half-maximal inhibitory concentration (IC50) result (in test [1] (cho-k1); in test [2]; in test [3] (hek293); at Estrogen receptor beta; against Leukotriene C4 synthase; at D(4) dopamine receptor (cho-k1)) was “Not Active” each time.

For `CC1CCC(NC(=O)N(CCCl)N=O)CC1` (stereo not drawn) [SEMUSTINE], the half-maximal inhibitory concentration (IC50) entry (in test [1] (cho-k1); in test [2]; in test [3] (hek293); at Estrogen receptor beta; against Leukotriene C4 synthase; at D(4) dopamine receptor (cho-k1)) was “Not Active” throughout.

As to `O=C1C[C@@H]2OCC=C3CN4CC[C@]56c7ccccc7N1[C@H]5[C@H]2[C@H]3C[C@H]46` [STRYCHNINE], the IC50 result (in test [1] (cho-k1); in test [2]; in test [3] (hek293); at Leukotriene C4 synthase; at D(4) dopamine receptor (cho-k1)) was “Not Active” in each case.

For the molecule `C[N+](C)(C)CCOC(=O)CCC(=O)OCC[N+](C)(C)C.[Cl-].[Cl-]` [SUCCINYLCHOLINE CHLORIDE], the IC50 entry (in test [1] (cho-k1); in test [2]; in test [3] (hek293); on Estrogen receptor beta; at Leukotriene C4 synthase; at D(4) dopamine receptor (cho-k1)) was “Not Active” throughout.

For the molecule `Nc1ccc(S(=O)(=O)NC(=O)c2ccccc2)cc1` [SULFABENZAMIDE], the 50% inhibitory concentration (IC50) result (in test [1] (cho-k1); in test [2]; in test [3] (hek293); against Estrogen receptor beta; against Leukotriene C4 synthase; on D(4) dopamine receptor (cho-k1)) was “Not Active” in each case.

With `CCCCCCCCNC(C)C(O)c1ccc(SC(C)C)cc1` (stereo not drawn) [SULOCTIDIL], the IC50 result (in test [1] (cho-k1); in test [2]; in test [3] (hek293); against Estrogen receptor beta; at Leukotriene C4 synthase; on D(4) dopamine receptor (cho-k1)) was “Not Active” throughout.

`O=c1[nH]c(=O)n(C2CCCO2)cc1F` (stereo not drawn) [TEGAFUR]: the IC50 result (in test [1] (cho-k1); in test [2]; in test [3] (hek293); at Estrogen receptor beta; at Leukotriene C4 synthase; on D(4) dopamine receptor (cho-k1)) was “Not Active” throughout.

On to `CC(=N)S` [THIOACETAMIDE], for which the IC50 result (in test [1] (cho-k1); in test [2]; in test [3] (hek293); at Estrogen receptor beta; on Leukotriene C4 synthase; on D(4) dopamine receptor (cho-k1)) was “Not Active” each time.

For `Cc1ccc(C(=O)c2ccc(CC(=O)O)n2C)cc1` [TOLMETIN], the 50% inhibitory concentration (IC50) entry (in test [1] (cho-k1); in test [2]; in test [3] (hek293); at Estrogen receptor beta; against Leukotriene C4 synthase; at D(4) dopamine receptor (cho-k1)) was “Not Active” each time.

Broadly, the IC50 is the concentration that gives 50% inhibition. As a reminder, the Ki is the dissociation constant of the complex between target and ligand, obtained from inhibition or displacement.
